In data set [1] the target is T1, CCK receptors of rat pancreas (Rattus norvegicus, UniProt P30551).
T1 construct: of rat pancreas plasma membranes; from tissue; host or cells: rat pancreas plasma membranes (SD50 males; animals from IFFA CREDO)
T1 sequence (P30551 1-444): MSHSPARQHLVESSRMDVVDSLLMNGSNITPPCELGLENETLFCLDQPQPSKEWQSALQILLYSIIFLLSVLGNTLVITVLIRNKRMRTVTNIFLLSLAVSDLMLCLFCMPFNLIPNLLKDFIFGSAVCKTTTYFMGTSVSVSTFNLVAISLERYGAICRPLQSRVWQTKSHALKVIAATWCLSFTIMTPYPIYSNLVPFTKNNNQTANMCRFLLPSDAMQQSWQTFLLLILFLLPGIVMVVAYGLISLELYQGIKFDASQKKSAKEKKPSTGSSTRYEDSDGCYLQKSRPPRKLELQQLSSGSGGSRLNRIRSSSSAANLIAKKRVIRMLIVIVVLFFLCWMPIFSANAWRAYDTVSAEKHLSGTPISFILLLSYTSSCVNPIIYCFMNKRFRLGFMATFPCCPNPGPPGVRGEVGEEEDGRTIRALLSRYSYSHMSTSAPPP
As to the kind of experiment: Inhibition of binding of sulphated [125I]-CCK8 to receptors of rat pancreas plasma membranes. To be noted: for ratio of the IC50 for the brain receptors to the IC50 for the pancreas receptors: guinea-pig brain / rat pancreas. The text has this:
of rat pancreas plasma membranes (SD50 males, IFFA CREDO, 200-225 g)

Data set [2] deals with T2, CCK receptors of guinea-pig brain (Cavia porcellus, UniProt H0VZC5).
T2 construct: of guinea-pig brain membranes; from tissue; host or cells: guinea-pig brain membranes (males; animals from COB LABO)
T2 sequence (H0VZC5 1-426): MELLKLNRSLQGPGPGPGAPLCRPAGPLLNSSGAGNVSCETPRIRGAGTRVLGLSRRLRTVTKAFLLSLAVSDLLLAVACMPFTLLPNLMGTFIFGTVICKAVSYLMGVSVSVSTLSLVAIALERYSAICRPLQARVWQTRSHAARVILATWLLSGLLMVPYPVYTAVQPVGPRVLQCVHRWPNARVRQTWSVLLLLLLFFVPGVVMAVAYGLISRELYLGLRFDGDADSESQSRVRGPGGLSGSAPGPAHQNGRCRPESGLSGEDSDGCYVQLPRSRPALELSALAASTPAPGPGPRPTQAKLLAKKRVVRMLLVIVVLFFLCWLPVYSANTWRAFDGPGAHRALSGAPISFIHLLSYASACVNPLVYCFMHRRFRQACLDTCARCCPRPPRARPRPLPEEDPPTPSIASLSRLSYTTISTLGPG
Put plainly: Inhibition of binding of sulphated [125I]-CCK8 to receptors of guinea-pig brain membranes. From the text: of guinea-pig brain membranes (males, COB LABO, 325-350 g) according to the protocol described by INNIS R. B. and SNYDER S. M., Eur. J. Pharmacol., 65, 123-124, 1980.

A short description of data set [3]: Acute toxicity. To be noted: mouse, in vivo, male mice.
Data set [4] relates to inhibition of gastric emptying caused by sulphated CCK-8. As to the kind of experiment: Gastric emptying model in mice: antagonism of the inhibition of gastric emptying caused by sulphated CCK-8. Particulars: Mus musculus, sulphated CCK-8 80 μg/kg, sc. In kind it is in vivo, mice (SWISS male).
A short description of data set [5]: IRWIN's tests (behavior). To be noted: for IRWIN (first dose modifying one of the parameters of behavior): male mice; for selectivity ratio: mouse, in vivo. The procedure: The acute toxicity was evaluated and IRWIN's tests (IRWIN S., Psychopharmacologia, 13, 222-257, 1968) were performed in male mice (20-21 g).
Setting [6] is: guinea-pig brain membranes, read-out: Binding (IC50) [125I]-CCK8-SO4 Brain.

From US4929614A, “Benzodiazepines, process and intermediates for the preparation thereof and their application in therapy” (Jouveinal S.A., priority 1988, dated 1990) come the findings set out here.

Like-named read-outs stand apart in the source and are kept apart here.

For `O=C(NC1N=C(c2ccccc2F)c2cc(Cl)cc3c2N(CC3)C1=O)c1cc2cc(Cl)ccc2[nH]1` (centres unmarked) [Il, 8-chloro-4-[(5-chloro-2-indolyl)carbonylamino]-6-(2-fluorophenyl)-1,2,3,4-tetrahydropyrrolo[3,2,1-jk][1,4]benzodiazepin-3-one], in data set [1], the IC50 came out at 12.3 nM and the “ratio of the IC50 for the brain receptors to the IC50 for the pancreas receptors” value (from here on “ratio of the IC50”) was determined as 2552.2. Further, in data set [2] (setting [6]), the IC50 worked out at 21400 nM.
For `CN1C(=O)C(NC(=O)c2cc3ccccc3[nH]2)N=C(c2ccccc2)c2ccccc21` (racemic) [IIa, reference compound], the LD50 in data set [3] is above 600 mg/kg. For the same compound, in data set [4], the ED50 came out at 0.05 mg/kg.
For the compound `O=C(NC1N=C(c2ccccc2F)c2cc(Cl)cc3c2N(CC3)C1=O)c1cc(Cl)cc(Cl)c1` (centres unmarked) [Im, 8-chloro-4-(3,5-dichlorobenzoylamino)-6-(2-fluorophenyl)-1,2,3,4-tetrahydropyrrolo[3,2,1-jk][1,4]benzodiazepin-3-one], in data set [1], the half-inhibitory concentration (IC50) turned out to be 30.6 nM and the “ratio of the IC50” value is on record as 831.1. In addition, the concentration for half-maximal inhibition (IC50) in data set [2] (setting [6]) was found to be 25400 nM.
As for `O=C(NC1N=C(c2ccccc2)c2cccc3c2N(CC3)C1=O)c1cc2ccccc2[nH]1` (centres unmarked) [Ia, 4-(indol-2-ylcarbonylamino)-phenyl-6-tetrahydro-1,2,3,4-pyrrolo[3,2,1-jk][1,4]benzodiazepin-3-one], the LD50 in data set [3] is above 1000 mg/kg. In data set [1], the IC50 is 5.3 nM and the “ratio of the IC50” value worked out at 209.4. Besides, the 50% effective dose (ED50) in data set [4] turned out to be 0.104 mg/kg. Also, the IC50 in data set [2] was 1110 nM. In addition, in data set [5], the “IRWIN (first dose modifying one of the parameters of behavior)” value (“IRWIN” below) is above 1000 mg/kg and the selectivity ratio is above 7600.
As to `O=C(N[C@@H]1N=C(c2ccccc2)c2cccc3c2N(CC3)C1=O)c1cc2ccccc2[nH]1` [If, (+)-(4R)-4-(2-Indolycarbonylamino)-6-phenyl-1,2,3,4-tetrahydropyrrolo[3,2,1-jk][1,4]benzodiazepin-3-one], in data set [1], the IC50 is 8640 nM and the “ratio of the IC50” value was determined as 2.8. In data set [2], this compound came in with an IC50 of 24000 nM.
For `O=C(N[C@H]1N=C(c2ccccc2)c2cccc3c2N(CC3)C1=O)c1cc2ccccc2[nH]1` [Ie, (-)-(4S)-4-(2-Indolylcarbonylamido)-6-phenyl-1,2,3,4-tetrahydropyrrolo[3,2,1-jk][1,4]benzodiazepin-3-one], in data set [3], the 50% lethal dose (LD50) was above 1000 mg/kg. Further, in data set [1], the IC50 was 1.5 nM and the “ratio of the IC50” value amounted to 318.0. The compound also returned a 50% effective dose (ED50) in data set [4] of 0.087 mg/kg. In addition, the half-inhibitory concentration (IC50) in data set [2] came to 477 nM. Also, in data set [5], the “IRWIN” value is recorded as above 1000 mg/kg and the selectivity ratio was above 11000.
Turning to `O=C(NC1N=C(c2ccccc2)c2cccc3c2N(CC3)C1=O)c1cccc(I)c1` (centres unmarked) [Ic, 4-(3-Iodobenzoylamino)-6-phenyl-1,2,3,4-pyrrolo[3,2,1-j,k][1,4]benzodiazepin-3-one], in data set [1], the IC50 stood at 45 nM and the “ratio of the IC50” value was 195.6. For the same compound, in data set [2] (setting [6]), the IC50 was determined as 8800 nM.
`O=C(NC1N=C(c2ccccc2F)c2cccc3c2N(CC3)C1=O)c1cc2ccccc2[nH]1` (centres unmarked) [Ig] showed an LD50 in data set [3] above 1000 mg/kg. In addition, in data set [1], the half-maximal inhibitory concentration (IC50) was determined as 0.023 nM and the “ratio of the IC50” value is recorded as 15913. In data set [4], this compound had an ED50 of 0.076 mg/kg. In data set [2], this compound showed an IC50 of 366 nM. Besides, in data set [5], the “IRWIN” value is recorded as above 300 mg/kg and the selectivity ratio was above 3900.
For `O=C(NC1N=C(c2ccccc2)c2cccc3c2N(CCC3)C1=O)c1cc2ccccc2[nH]1` (centres unmarked) [In, 5-(2-indolylcarbonylamino)-7-phenyl-1,2,3,3a,4,5-hexahydropyrido[3,2,1-jk][1,4]benzodiazepin-4-one], in data set [1], the concentration for half-maximal inhibition (IC50) came out at 3.9 nM and the “ratio of the IC50” value worked out at 104.4. Moreover, the IC50 in data set [2] turned out to be 407 nM.
Take `O=C(NC1N=C(c2ccccc2)c2cccc3c2N(CC3)C1=O)c1ccc(Cl)cc1` (centres unmarked) [Ib, 4-(4-Chlorobenzoylamino)-6-phenyl-1,2,3,4-tetrahydropyrrolo-[3,2,1-jk]benzodiazepin[1,4]-3-one]: in data set [1], the IC50 came to 37 nM and the “ratio of the IC50” value was 83.8. Also, the half-inhibitory concentration (IC50) in data set [2] (setting [6]) amounted to 3100 nM.
